Columns and labels:
U-937 cells / HAEC = test: Migration capability of monocyte (U-937), Transwell system with HAEC; assay type: cell-based, human; details: HAEC pre-incubated 5 or 10 μM 24 h, 25 mM glucose 4 h; FIG. 7
Protocol: The migration capability of monocyte was measured using the Transwell system (pore size 3 μm; BD Biosciences). HAEC cultured on a transwell placed in a 24 well microplate was pre-incubated with 5 or 10 μM serotonin derivative for 24 hours, and stimulated with 25 mM glucose for 4 hours. 200 μL of U-937 cell suspension (10^6 cells/mL) was added to the transwell and the cells were incubated as-is at 37° C. for 2 hours. The number of cells migrated to the lower chamber of the transwell through the membrane was counted under a microscope (20 fields). The experiment was repeated three times, and the results are shown as an average value thereof. An experiment using fluorescence-labeled U-937 cells was also performed. BCECF-AM-labeled U-937 cells were plated in the upper chamber of the transwell and incubated at 37° C. for 2 hours. The cells migrated to the lower chamber through the membrane were collected in 1 mL of PBS buffer and treated with 1% Triton X for 2 hours. The fluorescence derived from the migrated cells was quantified (Ex. 503 nm, Em. 525 nm) using a fluorescence plate reader (Bio-Rad, Fluoromark).

NF-κB (p65) = test: Activation of NF-κB (nuclear translocation of p65) in HAEC stimulated with high glucose; assay type: cell-based, human; details: pre-treatment 5 and 10 μM 24 h, 25 mM glucose 2 h, FIG. 1
Protocol: In the present invention, the term “suppression of NF-κB activation” means suppression of the translocation of NF-κB into the nucleus. The suppression of the translocation of NF-κB into the nucleus can be confirmed by the method described in Example 1. To be specific, a test substance is added to a culture medium of human aortic endothelial cells, the cells are incubated for a predetermined time, the nucleus is extracted from the aforementioned cells stimulated with glucose, and activated NF-κB (p65) translocated into the nucleus is detected. Using the cells before glucose stimulation, wherein NF-κB is not activated, as a negative control and the cells stimulated with glucose and free of addition of a test substance as a positive control, when the detection level of the aforementioned p65 is closer to the negative control than to the positive control, NF-κB activation is evaluated to have been suppressed.
Human aortic endothelial cells (HAEC) were purchased from Clonetics Corp, and the cells cultured for 3-4 passages (37° C., under 5% carbon dioxide gas atmosphere) were used for the experiment. […] Nucleus was extracted from the cells using Nuclear Extract Kit (Active Motif), and then the activated NF-κB (p65) translocated into the nucleus was detected by TransAM NF-κB p65 Kit (Active Motif).

[1] = test system: U-937 monocyte cells / HAEC; test: Monocyte (U-937) adhesion to HAEC cells; assay type: cell-based, human; details: HAEC pre-incubated 5 or 10 μM 24 h, 25 mM glucose 4 h; FIG. 5
Protocol: HAEC cells proliferated to confluence in a 24 well microplate were pre-incubated with CS and FS (5 or 10 μM each) for 24 hours and stimulated with 25 mM glucose for 4 hours. The cell layer was washed with Hanks solution, and then a suspension (1×10^6/mL, 200 μL) of U-937 monocyte cells (purchased from ATCC) was added, and the mixture was incubated at 37° C. for 30 minutes. After washing again, the cells were fixed with 1% para-formaldehyde and the number of U-937 cells attached onto HAEC was counted under a microscope (20 fields). The experiment was performed 3 times and the results are shown as an average value thereof. An experiment using fluorescence-labeled U-937 cells was also performed. To be specific, U-937 cells were incubated (37° C., 1 hour) in the presence of 10 μM 2′,7′-bis(2-carboxyethyl)-5(6)-carboxyfluorescein acetoxymethylester (BCECF-AM, Molecular Probes) and washed by centrifugation. Fluorescence-labeled U-937 cells (1×10^6/mL) were added to HAEC cells, and the mixture was incubated at 37° C. for 1 hour. The floating U-937 cells were removed, the plate was washed with PBS buffer and treated with 1% Triton X for 2 hours. The fluorescence amount of the attached cells was quantified (Ex. 503 nm, Em. 525 nm) using a fluorescence plate reader (Bio-Rad, Fluoromark).

VCAM-1 = VCAM-1 protein expression on HAEC cell membrane (immunostaining); assay type: cell-based, human; details: 0.1-10 μM 24 h, 25 mM glucose 4 h, FIG. 4A
Protocol: (§1) HAEC cells proliferated to confluence in a 96 well microplate were pre-incubated with 0.1-10 μM serotonin derivative for 24 hours, and stimulated with 25 mM glucose for 4 hours. The cell layer was washed with Hanks solution, and then anti-VCAM-1 monoclonal antibody (Becton Dickinson) was added and the cells were incubated at 37° C. for 1 hour. After washing, the cells were incubated with secondary antibody (peroxidase-labeled anti-mouse IgG goat F(ab′)2 fragment; Cappel) for 1 hour. A color development substrate (o-phenylenediamine dihydrochloride) was added and, about 30 minutes later (room temperature), the absorbance (492 nm) of each well was quantified with a microplate reader. The MCP-1 concentration of the medium was quantified with Human MCP-1 Immunoassay Kit (BioSource International).

MCP-1 = MCP-1 secretion into medium of HAEC (immunoassay); assay type: cell-based, human; details: 0.1-10 μM 24 h, 25 mM glucose 4 h, FIG. 4B
Protocol: as §1

[2] = test system: TNF-α, IL-1α, IL-1β and IL-6 production; details: human peripheral blood monocyte stimulated by LPS; cited from earlier work
VCAM-1 mRNA = VCAM-1 mRNA expression in HAEC by real-time PCR; assay type: cell-based, human; details: 10 μM 24 h, 25 mM glucose 3 h, GAPDH internal standard, FIG. 3A
Protocol: (§2) HAEC cells pre-treated with 10 μM of CS or FS for 24 hours were stimulated with 25 mM glucose for 3 hours, and total RNA was extracted with Isogenkit (NIPPON GENE CO., LTD.). From 1 μg of RNA, cDNA was synthesized using 100 U/mL of reverse transcriptase (TAKARA BIO INC.) and 0.1 μM of oligo (dT)-adapter (TAKARA BIO INC.) (total volume of reaction mixture; 50 μL) (42° C., 40 minutes). Real-time PCR was performed using 7300 Real Time PCR system (Applied Biosystems Japan Ltd.) and the PCR product was detected by SYBER Green I.
(§3) PCR reaction composition (RT-PCRkit, TAKARA BIO INC.): 12.5 μL Premix Ex Taq, 2.5 μL SYBER Green I, synthesis primer, ROX reference dye, cDNA (corresponding to 20 ng of total RNA), final reaction volume; 25 μL
(§4) Primers having the following sequences were used.
(§5) PCR was conducted under the following conditions.
(§6) thermal denaturation: at 95° C. for 15 seconds, extension reaction: 40 cycles (3 seconds at 95° C., 31 seconds at 60° C.)
(§7) Expression amounts of VCAM-1 and MCP-1 mRNA were calculated using GAPDH as the internal standard.

MCP-1 mRNA = MCP-1 mRNA expression in HAEC by real-time PCR; assay type: cell-based, human; details: 10 μM 24 h, 25 mM glucose 3 h, GAPDH internal standard, FIG. 3B
Protocol: as §2, §3, §4, §5, §6, §7

[3] = test system: IBD model mice (IL-10 deficient cell-transplanted SCID mice); details: Ikenoue et al. 2005; cited from earlier work

Structure (SMILES): O=C(/C=C/c1ccc(O)cc1)NCCc1c[nH]c2ccc(O)cc12 [CS, N-(p-coumaroyl)serotonin]
- number of U-937 cells migrated into subendothelium space (cell count) (U-937 cells / HAEC): significantly decreased
- nuclear translocation of p65 (activation of NF-κB) (NF-κB (p65)): significantly suppressed
- number of U-937 cells attached onto HAEC (cell count) [1]: decreased the number of attached cells in a serotonin derivative dose-dependent manner
- VCAM-1 expression on the cell membrane (VCAM-1): suppressed the induction of their expressions in a dose-dependent manner
- MCP-1 secretion into the medium (MCP-1): suppressed the induction of their expressions in a dose-dependent manner
- concentration inhibiting production of TNF-α, IL-1α, IL-1β and IL-6 at a transcription level [2]: ≥ 50 µM
- expression amount of VCAM-1 mRNA (VCAM-1 mRNA): significantly suppressed the increase
- expression amount of MCP-1 mRNA (MCP-1 mRNA): significantly suppressed the increase

Structure (SMILES): C[C@]12C=CC(=O)C=C1CC[C@@H]1[C@@H]2[C@@H](O)C[C@@]2(C)[C@H]1CC[C@]2(O)C(=O)CO [prednisolone]
- condition (chronic inflammation in the intestine) of the IBD model [3]: can be improved

— patent US20090156657A1, “ANTI-INFLAMMATORY COMPOSITION” (Ajinomoto Co., Inc., priority 2006, published 2009)
